Test [1] deals with primary cortical neurons. The test can be described thus: CRMP immunoblot after neurotoxin treatment of primary cortical neurons, with or without protease inhibitors. The class given is cell-based, rat. Particulars: for STS-mediated generation of the 55 kDa CRMP2 BDP (effect of inhibitor): STS 0.5 μM challenge, primary cortical neurons; for formation of the 55 kDa CRMP2 BDP after NMDA treatment (effect of inhibitor pretreatment): pretreatment of primary cortical culture; for CRMP5 after neurotoxin / intact CRMP1 and CRMP4 after neurotoxin: NMDA 200 μM 6 hours, maitotoxin 3 nM 3 hours; for integrity of intact CRMP2 / appearance of 55 kDa BDP after neurotoxin: NMDA 200 μM, MTX, STS 0.5 μM, EDTA 5 mM. How it is done: Primary cortical neurons from first post-natal day Sprague-Dawley rat brains were plated on poly-L-lysine coated culture plates (Erie Scientific, Portsmouth, N.H., U.S.A.). Cells were dissociated with trypsin and DNase I, re-suspended in 10% plasma-derived horse serum (PDHS) in Dulbecco's modified Eagle's medium (DMEM), and plated on poly-L-lysine treated 35 mm (density: 3.0×10^6 cells per well) plates. Cells were allowed to grow in an atmosphere of 10% CO2 at 37° C. for three days and then treated with 1 μM 4-amino-6-hydrazino-7-β-D-ribofuranosyl-7H-pyrrolo (2,3-d)-pyrimidine-5-carboxamide (ARC) for two days. The ARC was removed and fresh 10% PDHS was added in DMEM, after which the cells were grown for an additional 10-14 days.
Protein concentrations of cell or tissue lysates were determined via Bio-Rad DC Protein Assay (Bio-Rad, Hercules, Calif.). Protein balanced samples were prepared for sodium dodecyl sulfate-polyacrylamide gel electrophoresis (SDS-PAGE) in a two-fold loading buffer containing 0.25 M Tris (pH 6.8), 0.2 M DTT, 8% SDS, 0.02% bromophenol blue, and 20% glycerol in distilled water. Samples were heated for 90 seconds at 90° C. and centrifuged for 2 minutes. Twenty micrograms (20 μg) of protein per lane were routinely resolved by SDS-PAGE on Tris-glycine gels for 2 hours at 130V. Following electrophoresis, separated proteins were laterally transferred to polyvinylidene fluoride (PVDF) membranes in a transfer buffer containing 39 mM glycine and 48 mM Tris-HCl (pH 8.3) 5% methanol at a constant voltage of 20 V for 2 hours at ambient temperature in a semi-dry transfer unit (Bio-Rad) by the semi-dry method.
Rat CRMP5 antibody (targeting to residues 369-564, Chemicon, Temecula, Calif.) was dialyzed with PBS using Slide-A-Lyzer MINI Dialysis Units, (Pierce, 3.5MWCO, 69550, Rockford, Ill.). Then CRMP5 was biotinylated by using EZ-link, sulfo-NHS-LC-LC-biotin by following the manufacture's instructions. Membranes were blotted either with anti-CRMP-1, or -4 (targeting residues 499-511, Chemicon), biotinylated-anti-CRMP5 antibodies or anti-CRMP2 (C4G) or a C-terminal anti-CRMP2 antibody raised against a synthetic peptides of residues 551-559), and developed with biotin and avidin-conjugated alkaline phosphatase (this step was skipped in CRMP5 blotting) and nitroblue tetrazolium and 5-bromo-4-chloro-3-indolyl phosphate. Quantitative evaluation of protein levels was performed via computer-assisted densitometric scanning (NIH Image J V.1.6 software).
For orientation: In western blotting, separated proteins are transferred to a membrane and probed.

The test system of test [2] is primary cortical neurons. The test can be described thus: LDH release assay of NMDA induced neuronal cell injury. Particulars: for protection against NMDA induced neuronal cell injury (LDH release): time course, protection within 6 hours. It is filed as cell-based, rat. How it is done: LDH release assays were performed to determine the role of calpain and caspase inhibition on NMDA induced neuronal cell injury, and to draw a link with CRMP2 degradation. The release of LDH, normally present in the cytoplasm of neurons, into the cell culture media can be used as a measure of dying cells.

The target in the next test is T1, calpain (Rattus norvegicus, UniProt Q07009).
T1 construct: purchased Calbiochem
T1 sequence (Q07009 20-700 limits assumed): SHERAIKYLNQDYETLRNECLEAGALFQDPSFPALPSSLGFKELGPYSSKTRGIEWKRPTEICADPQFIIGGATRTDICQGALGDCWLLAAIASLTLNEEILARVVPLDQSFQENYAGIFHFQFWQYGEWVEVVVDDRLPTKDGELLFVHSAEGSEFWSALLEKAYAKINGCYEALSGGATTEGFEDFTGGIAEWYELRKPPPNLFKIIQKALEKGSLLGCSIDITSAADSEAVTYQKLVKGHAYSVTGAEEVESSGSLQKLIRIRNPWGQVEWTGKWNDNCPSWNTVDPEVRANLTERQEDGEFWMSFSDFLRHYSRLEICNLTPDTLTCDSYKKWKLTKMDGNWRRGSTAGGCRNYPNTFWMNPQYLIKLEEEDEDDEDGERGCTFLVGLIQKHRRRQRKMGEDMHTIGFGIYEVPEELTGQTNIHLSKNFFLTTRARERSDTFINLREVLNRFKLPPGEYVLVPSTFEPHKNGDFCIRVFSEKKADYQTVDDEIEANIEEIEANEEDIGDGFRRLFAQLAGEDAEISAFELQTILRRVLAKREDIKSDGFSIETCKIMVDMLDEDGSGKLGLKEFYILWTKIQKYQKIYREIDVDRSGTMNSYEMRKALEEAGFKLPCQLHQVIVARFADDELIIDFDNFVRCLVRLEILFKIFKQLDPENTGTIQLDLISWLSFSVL
T1 sequence (Q64537 88-270 partner limits assumed): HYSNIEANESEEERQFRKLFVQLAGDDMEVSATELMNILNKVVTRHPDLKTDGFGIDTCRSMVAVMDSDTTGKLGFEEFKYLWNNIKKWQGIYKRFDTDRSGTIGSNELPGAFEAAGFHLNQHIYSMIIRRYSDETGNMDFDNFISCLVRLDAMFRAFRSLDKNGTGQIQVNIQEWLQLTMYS
Put plainly: In vitro calpain digestion of naïve brain lysate (CRMP2 immunoblot). The class given is biochemical. Particulars: pretreatment of naïve lysate. How it is done:
(§1) In vitro digestion of rat brain lysate (5 mg) was performed with the purified proteases human erythrocyte calpain-1, rat recombinant calpain-2 (Calbiochem, San Diego, Calif.) and recombinant human caspase-3 (Chemicon, Temecula, Calif.) in a buffer containing 100 mM Tris-HCl (pH 7.4) and 20 mM DTT. For calpain, 2 mM CaCl2 was also added, and then incubated at room temperature for 30 minutes. For caspase-3, samples were incubated at 37° C. for four hours. Protease reactions were stopped by the addition of calpain inhibitor SJA6017 to a concentration of 30 μM (Senju Pharmaceuticals, Kobe, Japan) or pan-caspase inhibitor Z-VAD to a concentration of 20 μM and a protease inhibitor cocktail solution.
(§2) This example was to determine whether CRMP2 proteolysis was calpain mediated following TBI, similar to the proteolysis found in cell culture after neurotoxin treatment. […] The complete inhibition of calpain and caspase activity was confirmed by parallel monitoring of calpain and caspase associated αII-spectrin degradation. […] Therefore, calpain produced the 55 kDa CRMP-2 BDP, while caspase-3 was ruled out.

Test [3] concerns rat cerebrocortical cultures. Put plainly: Synaptotagmin-1 fragmentation and vesicle organization in neurotoxin-challenged neuronal cultures. It is filed as cell-based. To be noted: for organization of synaptotagmin-coupled vesicles: cerebrocortical neurons and cerebellar granule neurons; for fragmentation of 65 kDa synaptotagmin-1 protein (33-36 kDa N-terminal fragments): oncotic, apoptotic and excitotoxic challenge. How it is done:
Cerebrocortical cells harvested from 1-day old Sprague-Dawley rat brains were plated on poly-L-lysine coated on 6-well culture plates (Erie Scientific, Portsmouth, N.H., USA) at a density of 4.36×10^5 cells/mL. Cultures were maintained in Dulbecco's modified Eagle's medium (DMEM) with 10% fetal bovine serum in a humidified incubator in an atmosphere of 10% CO2 at 37° C. After 5 days in culture, the media were changed to DMEM with 5% horse serum. Subsequent media changes were performed three times a week. Experiments were performed on days 10 to 11 in vitro when astroglia had formed a confluent monolayer beneath morphologically mature neurons.
Cerebrocortical cultures (12-day-old) from above were washed three times with serum-free MEM.
After electrotransfer, blotting membranes were blocked for 1 hour at ambient temperature in 5% non-fat milk in TBS and 0.05% […] (TBST), then incubated in primary monoclonal synaptotagmin-1 antibody (BD Cat# 610434) in TBST with 5% milk at 1/50 dilution as recommended by the manufacturer at 4° C. overnight, followed by three washes with TBST and a 2 hour incubation at ambient temperature with a secondary antibody linked to biotinylated secondary antibody (Amersham, Cat # RPN1177v1) followed by a 30 min incubation with strepavidin-conjugated alkaline phosphatase (calorimetric method). Colorimetric development was performed with a one-step BCIP NBT reagent (KPL, Cat # 50-81-08). Molecular weights of intact synaptotagmin-1 protein and their potential breakdown products (BDPs) were assessed by running along side rainbow colored molecular weight standards (Amersham, Cat # RPN800V).

The target in test [4] is T2, recombinant human caspase-3 (Homo sapiens, UniProt P42574).
T2 construct: purchased Chemicon
T2 sequence (P42574 29-175 limits assumed): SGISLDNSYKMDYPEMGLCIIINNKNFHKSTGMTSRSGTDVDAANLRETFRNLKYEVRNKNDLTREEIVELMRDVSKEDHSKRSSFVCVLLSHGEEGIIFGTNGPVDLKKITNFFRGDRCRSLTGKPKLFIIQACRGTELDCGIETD
T2 sequence (P42574 176-277 limits assumed): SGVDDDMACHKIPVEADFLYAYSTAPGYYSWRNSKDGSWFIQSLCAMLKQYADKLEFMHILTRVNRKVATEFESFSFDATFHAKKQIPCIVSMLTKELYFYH
The test can be described thus: In vitro caspase-3 digestion of naïve brain lysate (CRMP2 immunoblot). The class given is biochemical. The method, then: as §1, §2

Five molecules from patent US8557526B2, “Synaptotagmin and collapsin response mediator protein as biomarkers for traumatic brain injury” (University of Florida Research Foundation, Inc., priority 2007, dated 2013) can be followed below.

As to `CC(C)C[C@@H](C=O)NC(=O)[C@@H](NS(=O)(=O)c1ccc(F)cc1)C(C)C` [SJA6017], in the test on primary cortical neurons [1], the “STS-mediated generation of the 55 kDa CRMP2 BDP (effect of inhibitor)” value is recorded as “effectively blocked” and the “formation of the 55 kDa CRMP2 BDP after NMDA treatment (effect of inhibitor pretreatment)” value is on record as “prevented the formation of the 55 kDa CRMP2 BDP”. In addition, the “protection against NMDA induced neuronal cell injury (LDH release)” value with primary cortical neurons [2] (NMDA treatment) is “significant protection within 6 hours”. Moreover, the “protection of neurons from excitotoxic injury after 12 hours” value in the test with primary cortical neurons [2] (preincubation with inhibitor, after 12 hours) is “did not effectively protect”. Besides, the “formation of the 55 kDa CRMP-2 BDP by calpain in naïve brain lysate (effect of inhibitor)” value on calpain is given as “blocked formation of the 55 kDa CRMP-2 BDP”.
Turning to `C=CC[C@H](C)[C@H](C)C[C@@H](O)[C@H](O)[C@@H]1CC[C@@]2(C)O[C@@]3(C)C[C@@]4(C)O[C@H]5/C=C\C[C@H]6O[C@H]7C[C@H]8O[C@H]9C[C@@]%10(C)O[C@@](C)([C@@H]%11CC[C@H]%12O[C@@]%13(C)C[C@H]%14O[C@@]%15(C)C[C@H]%16O[C@@]%17(C)C[C@@H](O)[C@H]([C@@H]%18O[C@H]%19[C@H](O)[C@@H](O)[C@H](C[C@H](O)C[C@@H](O)[C@@H]%20O[C@H]%21[C@H](O)[C@@H](O)[C@H]([C@@H]%22O[C@@H]%23[C@H](O)[C@H]%24O[C@H]%25C[C@H]%26O[C@@H](C[C@H](O)[C@@H](O)[C@H]%27O[C@H]%28[C@H](O)[C@H]%29O[C@H]%30C[C@H]%31O[C@H]%32[C@@H](O)[C@@H](O)[C@H]([C@H](C)[C@H](O)[C@H](C)CC[C@H](OS(=O)(=O)O)[C@H](O)[C@H](C)C[C@@H](O)C(=C)/C(C)=C/CO)O[C@@H]%32[C@H](O)C[C@]%31(C)O[C@@H]%30C[C@]%29(C)O[C@@H]%28C[C@H]%27O)[C@H](OS(=O)(=O)O)[C@H](O)[C@@H]%26O[C@@H]%25C[C@@H]%24O[C@H]%23[C@H](O)[C@H]%22O)O[C@H]%21C[C@H]%20O)O[C@H]%19C[C@H]%18O)O[C@@H]%17[C@H](O)[C@]%16(C)O[C@@H]%15CC[C@]%14(C)O[C@@H]%13C[C@@H]%12O%11)[C@H](O)C[C@@H]%10O[C@]9(C)CC[C@]8(C)O[C@]7(C)C[C@@H]6O[C@@H]5C[C@@H]4O[C@@H]3C[C@@H]2O1` [MTX, maitotoxin], in the test with primary cortical neurons [1], the CRMP5 after neurotoxin entry was “no remarkable change”; the “intact CRMP1 and CRMP4 after neurotoxin” value is “Decrease of CRMP1 and CRMP4”. In test [3], the “organization of synaptotagmin-coupled vesicles” value is listed as “extensive disorganization” and the “fragmentation of 65 kDa synaptotagmin-1 protein (33-36 kDa N-terminal fragments)” value (“fragmentation” for short) was “fragmented by calpain into N-terminal fragments”.
For `CN[C@@H]1C[C@H]2O[C@@](C)([C@@H]1OC)n1c3ccccc3c3c4c(c5c6ccccc6n2c5c31)C(=O)NC4` [STS, staurosporine], in the test with primary cortical neurons [1], the “integrity of intact CRMP2 / appearance of 55 kDa BDP after neurotoxin” value is on record as “rapidly degraded to the 55 kDa BDP”. Besides, the “fragmentation” value in test [3] is recorded as “fragmented by calpain into N-terminal fragments”.
Take `CN[C@H](CC(=O)O)C(=O)O` [NMDA, N-Methyl-D-Asparate]: in the test on primary cortical neurons [1], the CRMP5 after neurotoxin result is “no remarkable change”; the “intact CRMP1 and CRMP4 after neurotoxin” value was “Decrease of CRMP1 and CRMP4”; the “integrity of intact CRMP2 / appearance of 55 kDa BDP after neurotoxin” value is listed as “marked reduction”. Further, in the test with primary cortical neurons [1] (NMDA 200 μM time course), the “time of appearance of the 55 kDa CRMP2 BDP” value was ≤ 3 h. In addition, the “neuron death (LDH release)” value in the test with primary cortical neurons [2] (NMDA treatment, peaking at 24 hours) is “induced significant neuron death after a 3 hour induction”. Besides, in test [3], the “organization of synaptotagmin-coupled vesicles” value is listed as “extensive disorganization” and the “fragmentation” value is “fragmented by calpain into N-terminal fragments”.
For Z-VAD, in the test on primary cortical neurons [1], the “STS-mediated generation of the 55 kDa CRMP2 BDP (effect of inhibitor)” value is reported as “offered no protection” and the “formation of the 55 kDa CRMP2 BDP after NMDA treatment (effect of inhibitor pretreatment)” value was “not”. Further, the “protection against NMDA induced neuronal cell injury (LDH release)” value in the test on primary cortical neurons [2] (NMDA treatment) is recorded as “no protection”. In addition, in test [4], the “66 kDa intact CRMP2 band after caspase-3 treatment with inhibitor” value is “did completely disappear”.
